Test results published in article PMC11435058, “Synthesis of New Thiazole-Privileged Chalcones as Tubulin Polymerization Inhibitors with Potential Anticancer Activities” (Pharmaceuticals, 2024).

Assays:
Assay in all cases: NCI-60 anticancer screen (SRB; single dose and five doses)
SN12C = conditions: Homo sapiens
PC-3 = conditions: Homo sapiens
SF-295 = conditions: Homo sapiens
MDA-MB-231/ATCC = conditions: Homo sapiens
ACHN = conditions: Homo sapiens
BT-549 = conditions: Homo sapiens
CAKI-1 = conditions: Homo sapiens
MDA-MB-468 = type: cell-based, human
Method in brief: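 Readout was sulforhodamine B staining, read spectrophotometrically as percent growth against untreated controls. This followed a 48 h exposure to one 10μM dose across roughly 60 human tumor lines of the NCI screen.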

SF-539 = conditions: Homo sapiens
UACC-62 = conditions: Homo sapiens
SNB-75 = conditions: Homo sapiens, SNB-75, 48 h, read-out: Growth Percentage
M14 = conditions: Homo sapiens
NCI-H460 = conditions: Homo sapiens
SF-268 = conditions: Homo sapiens
HS 578T = conditions: Homo sapiens
DU-145 = conditions: Homo sapiens
SR = conditions: Homo sapiens
HOP-92 = conditions: Homo sapiens
A498 = conditions: Homo sapiens
HOP-62 = conditions: Homo sapiens
RPMI-8226 = conditions: Homo sapiens
EKVX = conditions: Homo sapiens
SW-620 = conditions: Homo sapiens
NCI-H322M = conditions: Homo sapiens
SK-MEL-28 = conditions: Homo sapiens
[1] = 48 h, read-out: Growth Percentage

Cc1[nH]c(=S)sc1C(=O)/C=C/c1ccc(Br)cc1 [2g, (E)-3-(4-Bromophenyl)-1-(4-Methyl-2-Thioxo-2,3-Dihydrothiazol-5-yl)Prop-2-En-1-One]
GI50 (SN12C): 3.15 µM
activity at 10 µM (SN12C; [1]): 19.2%
CC50 (SN12C; read-out: LC50): 36.8 µM
IC (TGI) (SN12C; read-out: TGI): 13.1 µM
GI50 (PC-3; PC-3): 4.68 µM
activity at 10 µM (PC-3; PC-3, 48 h, read-out: Growth Percentage): 48.8%
CC50 (PC-3; PC-3, read-out: LC50): > 100 µM
IC (TGI) (PC-3; PC-3, read-out: TGI): 26 µM
GI50 (SF-295; SF-295): 12.7 µM
activity at 10 µM (SF-295; SF-295, 48 h, read-out: Growth Percentage): 90.4%
CC50 (SF-295; SF-295, read-out: LC50): 52.7 µM
IC (TGI) (SF-295; SF-295, read-out: TGI): 25.8 µM
GI50 (MDA-MB-231/ATCC; MDA-MB-231): 10.9 µM
activity at 10 µM (MDA-MB-231/ATCC; MDA-MB-231, 48 h, read-out: Growth Percentage): 9.49%
CC50 (MDA-MB-231/ATCC; MDA-MB-231, read-out: LC50): 50.9 µM
IC (TGI) (MDA-MB-231/ATCC; MDA-MB-231, read-out: TGI): 23.5 µM
GI50 (ACHN): 7.67 µM
activity at 10 µM (ACHN; [1]): 55%
CC50 (ACHN; read-out: LC50): 45.4 µM
IC (TGI) (ACHN; read-out: TGI): 20.3 µM
GI50 (BT-549; BT-549): 2.6 µM
activity at 10 µM (BT-549; BT-549, 48 h, read-out: Growth Percentage): 19.5%
IC (TGI) (BT-549; BT-549, read-out: TGI): 7.28 µM
GI50 (CAKI-1; CAKI-1): 10 µM
activity at 10 µM (CAKI-1; CAKI-1, 48 h, read-out: Growth Percentage): 32.8%
CC50 (CAKI-1; CAKI-1, read-out: LC50): 47.2 µM
IC (TGI) (CAKI-1; CAKI-1, read-out: TGI): 21.8 µM
activity at 10 µM (MDA-MB-468; Homo sapiens, 48 h, MDA-MB-468, dose of 10 μM, read-out: Growth Percentage): -4.75%
GI50 (MDA-MB-468; Homo sapiens, MDA-MB-468, Breast Cancer, five dose): 1.79 µM
CC50 (MDA-MB-468; Homo sapiens, MDA-MB-468, Breast Cancer, five dose, read-out: LC50 (the source's name)): 27.2 µM
TGI (MDA-MB-468; MDA-MB-468, Breast Cancer, five dose): 6.77 µM
GI50 (SF-539; SF-539): 2 µM
activity at 10 µM (SF-539; SF-539, 48 h, read-out: Growth Percentage): -25.3%
IC (TGI) (SF-539; SF-539, read-out: TGI): 4.67 µM
GI50 (UACC-62; UACC-62): 5.17 µM
activity at 10 µM (UACC-62; UACC-62, 48 h, read-out: Growth Percentage): 46.8%
IC (TGI) (UACC-62; UACC-62, read-out: TGI): 18.6 µM
activity at 10 µM (SNB-75): 2.52%
GI50 (M14; M14): 9.02 µM
activity at 10 µM (M14; M14, 48 h, read-out: Growth Percentage): 74.5%
IC (TGI) (M14; M14, read-out: TGI): 22.9 µM
GI50 (NCI-H460; NCI-H460): 14.3 µM
activity at 10 µM (NCI-H460; NCI-H460, 48 h, read-out: Growth Percentage): 39.1%
CC50 (NCI-H460; NCI-H460, read-out: LC50): 80.9 µM
IC (TGI) (NCI-H460; NCI-H460, read-out: TGI): 34.1 µM
GI50 (SF-268; SF-268): 13.5 µM
activity at 10 µM (SF-268; SF-268, 48 h, read-out: Growth Percentage): 46.1%
CC50 (SF-268; SF-268, read-out: LC50): 64.2 µM
IC (TGI) (SF-268; SF-268, read-out: TGI): 29.5 µM
GI50 (HS 578T): 10.4 µM
activity at 10 µM (HS 578T; [1]): 74.6%
CC50 (HS 578T; read-out: LC50): > 100 µM
IC (TGI) (HS 578T; read-out: TGI): 33 µM
GI50 (DU-145; DU-145): 3.52 µM
activity at 10 µM (DU-145; DU-145, 48 h, read-out: Growth Percentage): 23.9%
CC50 (DU-145; DU-145, read-out: LC50): 35.3 µM
IC (TGI) (DU-145; DU-145, read-out: TGI): 12 µM
GI50 (SR): 2.83 µM
activity at 10 µM (SR; [1]): 8.46%
CC50 (SR; read-out: LC50): > 100 µM
IC (TGI) (SR; read-out: TGI): 23.2 µM
GI50 (HOP-92; HOP-92): 6.44 µM
activity at 10 µM (HOP-92; HOP-92, 48 h, read-out: Growth Percentage): 67.1%
CC50 (HOP-92; HOP-92, read-out: LC50): 58.8 µM
IC (TGI) (HOP-92; HOP-92, read-out: TGI): 22.5 µM
GI50 (A498; A498): 13.5 µM
activity at 10 µM (A498; A498, 48 h, read-out: Growth Percentage, A498, dose of 10 μM): 109%
CC50 (A498; A498, read-out: LC50): 51.8 µM
IC (TGI) (A498; A498, read-out: TGI): 26.5 µM
GI50 (HOP-62; HOP-62): 3.94 µM
activity at 10 µM (HOP-62; HOP-62, 48 h, read-out: Growth Percentage): 11.9%
CC50 (HOP-62; HOP-62, read-out: LC50): 61.2 µM
IC (TGI) (HOP-62; HOP-62, read-out: TGI): 14 µM
GI50 (RPMI-8226; RPMI-8226): 2.29 µM
activity at 10 µM (RPMI-8226; RPMI-8226, 48 h, read-out: Growth Percentage): 1.4%
CC50 (RPMI-8226; RPMI-8226, read-out: LC50): > 100 µM
IC (TGI) (RPMI-8226; RPMI-8226, read-out: TGI): > 100 µM
GI50 (EKVX): 10.6 µM
activity at 10 µM (EKVX; [1]): 62.9%
CC50 (EKVX; read-out: LC50): 51 µM
IC (TGI) (EKVX; read-out: TGI): 23.3 µM
GI50 (SW-620; SW-620): 2.82 µM
activity at 10 µM (SW-620; SW-620, 48 h, read-out: Growth Percentage): 5.7%
CC50 (SW-620; SW-620, read-out: LC50): 41.6 µM
IC (TGI) (SW-620; SW-620, read-out: TGI): 11.7 µM
GI50 (NCI-H322M): 3.76 µM
activity at 10 µM (NCI-H322M; [1]): 44.1%
CC50 (NCI-H322M; read-out: LC50): 41.3 µM
IC (TGI) (NCI-H322M; read-out: TGI): 15.2 µM
GI50 (SK-MEL-28; SK-MEL-28): 11.9 µM
activity at 10 µM (SK-MEL-28; SK-MEL-28, 48 h, read-out: Growth Percentage): 64.2%
CC50 (SK-MEL-28; SK-MEL-28, read-out: LC50): 50.2 µM
IC (TGI) (SK-MEL-28; SK-MEL-28, read-out: TGI): 24.5 µM
